This is an account of results in patent publication US10093883B2, “Glucose gemini surfactant compound and method for preparation thereof” (ZHEJIANG UNIVERSITY, priority 2014, dated 2018).

This series is described as follows: Surface activity test: critical micelle concentration (cmc), platinum plate method. The following applies: 20° C. Type of series: physicochemical. The procedure:
The critical micelle concentration (cmc) of the target product was determined as 0.0068 mmol/L at 20° C., which was 3 times […] than that of the compound dodecyl glucose gemini surfactant (cmc=0.02 mmol/L) and is suitable for separation and extraction of detergents and biofilm proteins.

As for `CCCCCCCCCCCCOCC(COCCOCC(COCCCCCCCCCCCC)O[C@@H]1OC(CO)[C@@H](O)C(O)C1O)O[C@@H]1OC(CO)[C@@H](O)C(O)C1O` (some centres unmarked) [dodecyl glucose gemini surfactant], the “critical micelle concentration (cmc)” value came to 0.02 mmol/L.

Regarding `CCCCCCCCCCCCCCOCC(COCCOCC(COCCCCCCCCCCCCCC)O[C@@H]1OC(CO)[C@@H](O)C(O)C1O)O[C@@H]1OC(CO)[C@@H](O)C(O)C1O` (some centres unmarked) [tetradecyl glucose gemini surfactant], the “critical micelle concentration (cmc)” value is on record as 0.053 mmol/L.
